# Measurements as given in patent US20020137929A1, “1 - (3-heterocyclylphenyl) isothiourea, -isourea, -guanidine and -amidine herbicidal agents” (Intellectual Property Department, BASF Aktiengesellschaft, priority 1998, published 2002).
# Assays:
# [1] = system: TRZAWR (Wheat, Winter, cv Riband); experiment: Postemergence herbicidal evaluation; format: in vivo, Triticum aestivum
# Method in brief: (§1)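 Young plants, roughly two weeks from seeding, receive the active ingredient as a sprayed dispersion (acetone/water 50/50, 0.5% TWEEN 20) at 40 psi. Doses span about 0.0156 to 0.500 kg/ha. A visual score from 0 to 9 compares treated with control plants four to five weeks on.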
# [2] = system: CHEAL (Lambsquarters, Common); experiment: Preemergence herbicidal evaluation; format: in vivo, Chenopodium album; conditions: rated 4-5 weeks after treatment
# Method in brief: (§2)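 Visual 0-9 rating vs control (stand, vigor, malformation, size, chlorosis, overall appearance), scored 4-5 wk after spraying. Seeded soil cups were treated preemergence with compound in aqueous acetone, ~0.0156-0.500 kg/ha equivalent.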
# CASOB (Sicklepod) [3] = experiment: Postemergence herbicidal evaluation; format: in vivo, Cassia obtusifolia
# Method in brief: as §1
# [4] = system: IPOHE (Morningglory, Ivyleaf); experiment: Postemergence herbicidal evaluation; format: in vivo, Ipomoea hederacea
# Method in brief: as §1
# AMBEL (Ragweed, Common) [5] = experiment: Postemergence herbicidal evaluation; format: in vivo, Ambrosia artemisifolia
# Method in brief: as §1
# MOOVA (Monochoria) = experiment: Preemergence weed control under flooded paddy conditions; format: in vivo, Monochoria vaginalis; conditions: rated 3-4 weeks after treatment
# Method in brief: (§3)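 First, seeds or propagules go into the top 0.5 cm of silt loam; next, water is held 1.5 to 3 cm over the soil; then compound (50/50 acetone/water) is pipetted into it at about 0.0313 to 0.500 kg/ha; finally plants are rated visually 0-9 after three to four weeks.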
# ABUTH (Velvetleaf) = experiment: Preemergence herbicidal evaluation; format: in vivo, Abutilon theophrasti; conditions: rated 4-5 weeks after treatment
# Method in brief: as §2
# [6] = system: GLXMAW (Soybean, Williams); experiment: Preemergence herbicidal evaluation; format: in vivo, Glycine max, (L.) Merr. cv Williams; conditions: rated 4-5 weeks after treatment
# Method in brief: as §2
# [7] = system: CHEAL (Lambsquarters, Common); experiment: Postemergence herbicidal evaluation; format: in vivo, Chenopodium album
# Method in brief: as §1
# ORYSAT (Rice, Tebonnet) = experiment: Preemergence herbicidal evaluation; format: in vivo, Oryza sativa, (L.) Tebonnet; conditions: rated 4-5 weeks after treatment
# Method in brief: as §2
# [8] = system: GLXMAW (Soybean, Williams); experiment: Postemergence herbicidal evaluation; format: in vivo, Glycine max, (L.) Merr. cv Williams
# Method in brief: as §1
# AMBEL (Ragweed, Common) [9] = experiment: Preemergence herbicidal evaluation; format: in vivo, Ambrosia artemisifolia; conditions: rated 4-5 weeks after treatment
# Method in brief: as §2
# ECHCG (Barnyardgrass) = experiment: Postemergence herbicidal evaluation; format: in vivo, Echinochloa crus-galli
# Method in brief: as §1
# [10] = system: IPOHE (Morningglory, Ivyleaf); experiment: Preemergence herbicidal evaluation; format: in vivo, Ipomoea hederacea; conditions: rated 4-5 weeks after treatment
# Method in brief: as §2
# CASOB (Sicklepod) [11] = experiment: Preemergence herbicidal evaluation; format: in vivo, Cassia obtusifolia; conditions: rated 4-5 weeks after treatment
# Method in brief: as §2
# [12] = system: SAGPY (Arrowhead (Pygmaea)); experiment: Preemergence weed control under flooded paddy conditions; format: in vivo, Sagittaria pygmaea; conditions: rated 3-4 weeks after treatment
# Method in brief: as §3
structure (smiles),measurement,setting,value
"Cn1c(C(F)(F)F)cc(=O)n(-c2cc(N=C3SCC(=O)N3CC(=O)NS(C)(=O)=O)c(Cl)cc2F)c1=O [Compound 38, 2-{{2-Chloro-5-[3,6-dihydro-3-methyl-2,6-dioxo-4-(trifluoromethyl)-1(2H)-pyrimidinyl]-4-fluoro-phenyl}imino}-N-(methylsulfonyl)-4-oxo-3-thiazolidineacetamide]",Postemergence herbicidal rating TRZAWR,[1]; Rate 0.0156 kg/ha,5.0
same,Postemergence herbicidal rating TRZAWR,[1]; Rate 0.0313 kg/ha,5.5
same,Postemergence herbicidal rating TRZAWR,[1]; Rate 0.0625 kg/ha,6.5
same,Postemergence herbicidal rating TRZAWR,[1]; Rate 0.1250 kg/ha,8.0
same,Postemergence herbicidal rating TRZAWR,[1]; Rate 0.2500 kg/ha,8.0
same,Preemergence herbicidal rating CHEAL,[2]; rate 0.0313 kg/ha,9.0
same,Preemergence herbicidal rating CHEAL,[2]; rate 0.0625 kg/ha,9.0
same,Preemergence herbicidal rating CHEAL,[2]; rate 0.1250 kg/ha,9.0
same,Preemergence herbicidal rating CHEAL,[2]; rate 0.2500 kg/ha,9.0
same,Postemergence herbicidal rating CASOB,CASOB (Sicklepod) [3]; Rate 0.0156 kg/ha,0.0
same,Postemergence herbicidal rating CASOB,CASOB (Sicklepod) [3]; Rate 0.0313 kg/ha,1.0
same,Postemergence herbicidal rating CASOB,CASOB (Sicklepod) [3]; Rate 0.0625 kg/ha,2.0
same,Postemergence herbicidal rating CASOB,CASOB (Sicklepod) [3]; Rate 0.1250 kg/ha,3.0
same,Postemergence herbicidal rating CASOB,CASOB (Sicklepod) [3]; Rate 0.2500 kg/ha,3.0
same,Postemergence herbicidal rating IPOHE,[4]; Rate 0.0156 kg/ha,9.0
same,Postemergence herbicidal rating IPOHE,[4]; Rate 0.0313 kg/ha,9.0
same,Postemergence herbicidal rating IPOHE,[4]; Rate 0.0625 kg/ha,9.0
same,Postemergence herbicidal rating IPOHE,[4]; Rate 0.1250 kg/ha,9.0
same,Postemergence herbicidal rating IPOHE,[4]; Rate 0.2500 kg/ha,9.0
same,Postemergence herbicidal rating AMBEL,"AMBEL (Ragweed, Common) [5]; Rate 0.0156 kg/ha",3.0
same,Postemergence herbicidal rating AMBEL,"AMBEL (Ragweed, Common) [5]; Rate 0.0313 kg/ha",5.0
same,Postemergence herbicidal rating AMBEL,"AMBEL (Ragweed, Common) [5]; Rate 0.0625 kg/ha",5.0
same,Postemergence herbicidal rating AMBEL,"AMBEL (Ragweed, Common) [5]; Rate 0.1250 kg/ha",9.0
same,Postemergence herbicidal rating AMBEL,"AMBEL (Ragweed, Common) [5]; Rate 0.2500 kg/ha",9.0
same,Herbicidal rating MOOVA,MOOVA (Monochoria); 0.0313 kg/ha,9.0
same,Herbicidal rating MOOVA,MOOVA (Monochoria); 0.0625 kg/ha,9.0
same,Herbicidal rating MOOVA,MOOVA (Monochoria); 0.1250 kg/ha,9.0
same,Herbicidal rating MOOVA,MOOVA (Monochoria); 0.2500 kg/ha,9.0
same,Preemergence herbicidal rating ABUTH,ABUTH (Velvetleaf); rate 0.0313 kg/ha,9.0
same,Preemergence herbicidal rating ABUTH,ABUTH (Velvetleaf); rate 0.0625 kg/ha,9.0
same,Preemergence herbicidal rating ABUTH,ABUTH (Velvetleaf); rate 0.1250 kg/ha,9.0
same,Preemergence herbicidal rating ABUTH,ABUTH (Velvetleaf); rate 0.2500 kg/ha,9.0
same,Preemergence herbicidal rating GLXMAW,[6]; rate 0.0313 kg/ha,0.0
same,Preemergence herbicidal rating GLXMAW,[6]; rate 0.0625 kg/ha,2.0
same,Preemergence herbicidal rating GLXMAW,[6]; rate 0.1250 kg/ha,2.0
same,Preemergence herbicidal rating GLXMAW,[6]; rate 0.2500 kg/ha,6.0
same,Postemergence herbicidal rating CHEAL,[7]; Rate 0.0156 kg/ha,1.0
same,Postemergence herbicidal rating CHEAL,[7]; Rate 0.0313 kg/ha,3.0
same,Postemergence herbicidal rating CHEAL,[7]; Rate 0.0625 kg/ha,4.0
same,Postemergence herbicidal rating CHEAL,[7]; Rate 0.1250 kg/ha,6.0
same,Postemergence herbicidal rating CHEAL,[7]; Rate 0.2500 kg/ha,9.0
same,Preemergence herbicidal rating ORYSAT,"ORYSAT (Rice, Tebonnet); rate 0.0313 kg/ha",0.0
same,Preemergence herbicidal rating ORYSAT,"ORYSAT (Rice, Tebonnet); rate 0.0625 kg/ha",0.0
same,Preemergence herbicidal rating ORYSAT,"ORYSAT (Rice, Tebonnet); rate 0.1250 kg/ha",0.0
same,Preemergence herbicidal rating ORYSAT,"ORYSAT (Rice, Tebonnet); rate 0.2500 kg/ha",2.0
same,Postemergence herbicidal rating GLXMAW,[8]; Rate 0.0156 kg/ha,6.5
same,Postemergence herbicidal rating GLXMAW,[8]; Rate 0.0313 kg/ha,6.5
same,Postemergence herbicidal rating GLXMAW,[8]; Rate 0.0625 kg/ha,8.0
same,Postemergence herbicidal rating GLXMAW,[8]; Rate 0.1250 kg/ha,8.5
same,Postemergence herbicidal rating GLXMAW,[8]; Rate 0.2500 kg/ha,8.5
same,Preemergence herbicidal rating AMBEL,"AMBEL (Ragweed, Common) [9]; rate 0.0313 kg/ha",0.0
same,Preemergence herbicidal rating AMBEL,"AMBEL (Ragweed, Common) [9]; rate 0.0625 kg/ha",0.0
same,Preemergence herbicidal rating AMBEL,"AMBEL (Ragweed, Common) [9]; rate 0.1250 kg/ha",0.0
same,Preemergence herbicidal rating AMBEL,"AMBEL (Ragweed, Common) [9]; rate 0.2500 kg/ha",5.0
same,Postemergence herbicidal rating ECHCG,ECHCG (Barnyardgrass); Rate 0.0156 kg/ha,0.0
same,Postemergence herbicidal rating ECHCG,ECHCG (Barnyardgrass); Rate 0.0313 kg/ha,2.0
same,Postemergence herbicidal rating ECHCG,ECHCG (Barnyardgrass); Rate 0.0625 kg/ha,2.0
same,Postemergence herbicidal rating ECHCG,ECHCG (Barnyardgrass); Rate 0.1250 kg/ha,5.0
same,Postemergence herbicidal rating ECHCG,ECHCG (Barnyardgrass); Rate 0.2500 kg/ha,9.0
same,Preemergence herbicidal rating IPOHE,[10]; rate 0.0313 kg/ha,0.0
same,Preemergence herbicidal rating IPOHE,[10]; rate 0.0625 kg/ha,4.0
same,Preemergence herbicidal rating IPOHE,[10]; rate 0.1250 kg/ha,5.0
same,Preemergence herbicidal rating IPOHE,[10]; rate 0.2500 kg/ha,9.0
same,Preemergence herbicidal rating CASOB,CASOB (Sicklepod) [11]; rate 0.0313 kg/ha,0.0
same,Preemergence herbicidal rating CASOB,CASOB (Sicklepod) [11]; rate 0.0625 kg/ha,0.0
same,Preemergence herbicidal rating CASOB,CASOB (Sicklepod) [11]; rate 0.1250 kg/ha,0.0
same,Preemergence herbicidal rating CASOB,CASOB (Sicklepod) [11]; rate 0.2500 kg/ha,3.0
same,Herbicidal rating SAGPY,[12]; 0.0313 kg/ha,0.0
same,Herbicidal rating SAGPY,[12]; 0.0625 kg/ha,3.0
same,Herbicidal rating SAGPY,[12]; 0.1250 kg/ha,4.0
same,Herbicidal rating SAGPY,[12]; 0.2500 kg/ha,9.0
